Test results as given in PubChem BioAssay (NCI).
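Method: 48-hour compound exposure of cells in 96-well plates, five concentrations, linear interpolation of endpoints. TGI is the concentration that stops growth completely.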

Assays:
Assay in all cases: inhibition of tumour cell growth, NCI panel, 48 h
LOX IMVI melanoma = test system: LOX IMVI melanoma
SW-620 colon = test system: SW-620 colon
U251 CNS = test system: U251 CNS
RXF 393 renal = test system: RXF 393 renal
OVCAR-4 ovarian = test system: OVCAR-4 ovarian
MDA-MB-231 breast = test system: MDA-MB-231 breast
UO-31 renal = test system: UO-31 renal
HOP-62 NSCLC = test system: HOP-62 NSCLC
HCT-15 colon = test system: HCT-15 colon
SF-295 CNS = test system: SF-295 CNS
IGROV1 ovarian = test system: IGROV1 ovarian
TK-10 renal = test system: TK-10 renal
KM12 colon = test system: KM12 colon
MCF7 breast = test system: MCF7 breast
HOP-92 NSCLC = test system: HOP-92 NSCLC
MALME-3M melanoma = test system: MALME-3M melanoma
SK-MEL-2 melanoma = test system: SK-MEL-2 melanoma
K-562 leukemia = test system: K-562 leukemia
NCI-H23 lung = test system: NCI-H23 lung
CCRF-CEM leukemia = test system: CCRF-CEM leukemia
NCI-H522 lung = test system: NCI-H522 lung
T-47D breast = test system: T-47D breast
MDA-N = test system: MDA-N
NCI-H460 lung = test system: NCI-H460 lung
SK-OV-3 ovarian = test system: SK-OV-3 ovarian
RPMI-8226 leukemia = test system: RPMI-8226 leukemia
HCT-116 colon = test system: HCT-116 colon
SNB-19 CNS = test system: SNB-19 CNS
OVCAR-5 ovarian = test system: OVCAR-5 ovarian
NCI-H226 lung = test system: NCI-H226 lung
SN12C renal = test system: SN12C renal
SF-268 CNS = test system: SF-268 CNS
HCC-2998 colon = test system: HCC-2998 colon
A549 NSCLC = test system: A549 NSCLC
SK-MEL-28 melanoma = test system: SK-MEL-28 melanoma
NCI/ADR-RES ovarian = test system: NCI/ADR-RES ovarian
HT29 colon = test system: HT29 colon
BT-549 breast = test system: BT-549 breast
OVCAR-8 ovarian = test system: OVCAR-8 ovarian
ACHN renal = test system: ACHN renal
786-0 renal = test system: 786-0 renal
M14 melanoma = test system: M14 melanoma
SNB-75 CNS = test system: SNB-75 CNS
EKVX NSCLC = test system: EKVX NSCLC
CAKI-1 renal = test system: CAKI-1 renal
MOLT-4 leukemia = test system: MOLT-4 leukemia
A498 renal = test system: A498 renal
SF-539 CNS = test system: SF-539 CNS
SK-MEL-5 melanoma = test system: SK-MEL-5 melanoma
OVCAR-3 ovarian = test system: OVCAR-3 ovarian
COLO 205 colon = test system: COLO 205 colon
UACC-257 melanoma = test system: UACC-257 melanoma
PC-3 prostate = test system: PC-3 prostate
MDA-MB-435 = test system: MDA-MB-435
DU-145 prostate = test system: DU-145 prostate
HS 578T breast = test system: HS 578T breast

Measured: TGI

CCOC(=O)C1=CC(C)(C(=O)OCC)Nc2c(nc(SC)[nH]c2=O)N1 (stereo unspecified)
> 10 µM: all assays above
